Assay results from ChEMBL document CHEMBL5465560, “Selectivity Literature for EUbOPEN Chemogenomic Library” (2024).
One block for each compound: values may come before it.

Assays:
[1] = molecular target: Ribosomal protein S6 kinase alpha-3 (Homo sapiens, UniProt P51812); assay: Selectivity interaction (ProQinase) EUB0000171b RPS6KA3
[2] = molecular target: T1, Phosphatidylinositol 4,5-bisphosphate 3-kinase catalytic subunit delta isoform (Homo sapiens) (UniProt O00329); assay: Selectivity interaction (KinomeScan (DiscoverX)) EUB0000655a PIK3CD; conditions: at 10 µM
T1 sequence (whole entry): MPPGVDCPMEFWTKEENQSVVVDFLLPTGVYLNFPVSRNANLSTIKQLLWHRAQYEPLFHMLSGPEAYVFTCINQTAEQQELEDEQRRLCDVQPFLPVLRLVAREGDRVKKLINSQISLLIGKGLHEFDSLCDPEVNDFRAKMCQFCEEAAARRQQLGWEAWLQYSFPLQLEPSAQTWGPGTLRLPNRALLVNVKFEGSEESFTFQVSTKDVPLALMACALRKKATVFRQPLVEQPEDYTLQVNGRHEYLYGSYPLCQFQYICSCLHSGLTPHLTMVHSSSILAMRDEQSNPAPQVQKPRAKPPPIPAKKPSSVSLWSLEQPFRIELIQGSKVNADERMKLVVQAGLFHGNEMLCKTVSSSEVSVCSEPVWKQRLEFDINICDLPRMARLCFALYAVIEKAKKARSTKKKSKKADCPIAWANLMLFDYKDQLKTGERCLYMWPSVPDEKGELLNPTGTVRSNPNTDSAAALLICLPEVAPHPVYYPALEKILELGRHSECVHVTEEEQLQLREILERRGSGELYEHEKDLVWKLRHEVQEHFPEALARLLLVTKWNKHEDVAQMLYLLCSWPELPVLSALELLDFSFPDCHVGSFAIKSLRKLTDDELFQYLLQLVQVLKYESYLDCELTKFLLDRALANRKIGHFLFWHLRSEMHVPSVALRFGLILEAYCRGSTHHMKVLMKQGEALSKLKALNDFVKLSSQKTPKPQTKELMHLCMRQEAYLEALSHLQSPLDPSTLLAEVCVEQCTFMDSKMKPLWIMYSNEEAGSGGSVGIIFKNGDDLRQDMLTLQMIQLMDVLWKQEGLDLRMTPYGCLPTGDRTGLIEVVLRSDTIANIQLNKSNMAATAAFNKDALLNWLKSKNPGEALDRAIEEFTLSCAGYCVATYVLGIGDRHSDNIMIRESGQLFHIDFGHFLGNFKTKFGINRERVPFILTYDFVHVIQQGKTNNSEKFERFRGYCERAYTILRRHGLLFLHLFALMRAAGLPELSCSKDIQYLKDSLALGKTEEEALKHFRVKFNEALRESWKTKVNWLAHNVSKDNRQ

[3] = molecular target: Bone morphogenetic protein receptor type-1B (Homo sapiens, UniProt O00238); assay: Selectivity interaction (KinomeScan (DiscoverX)) EUB0000045b BMPR1B
Sequence of Bone morphogenetic protein receptor type-1B (O00238 whole entry): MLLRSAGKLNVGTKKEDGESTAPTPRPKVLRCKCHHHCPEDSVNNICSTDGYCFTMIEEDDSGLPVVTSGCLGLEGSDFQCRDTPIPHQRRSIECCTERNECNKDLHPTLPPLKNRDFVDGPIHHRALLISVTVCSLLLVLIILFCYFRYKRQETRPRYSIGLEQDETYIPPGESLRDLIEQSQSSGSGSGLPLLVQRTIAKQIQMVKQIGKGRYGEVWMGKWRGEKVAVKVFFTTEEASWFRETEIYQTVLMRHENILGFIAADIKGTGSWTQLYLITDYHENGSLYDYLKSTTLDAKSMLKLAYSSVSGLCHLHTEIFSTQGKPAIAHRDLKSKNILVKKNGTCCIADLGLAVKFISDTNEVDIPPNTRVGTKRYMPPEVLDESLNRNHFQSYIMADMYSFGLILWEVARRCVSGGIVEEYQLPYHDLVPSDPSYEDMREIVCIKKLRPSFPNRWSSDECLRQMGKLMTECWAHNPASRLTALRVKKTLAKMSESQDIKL

[4] = molecular target: Chromatin remodeling regulator CECR2 (Homo sapiens, UniProt Q9BXF3); assay: Selectivity interaction (Bromodomain panel (DSF asssay)) EUB0000270b CECR2
[5] = molecular target: T2, Membrane-associated tyrosine- and threonine-specific cdc2-inhibitory kinase (Homo sapiens) (UniProt Q99640); assay: Selectivity interaction (KinomeScan (DiscoverX)) EUB0000229b PKMYT1; conditions: at 10 µM
T2 sequence (whole entry): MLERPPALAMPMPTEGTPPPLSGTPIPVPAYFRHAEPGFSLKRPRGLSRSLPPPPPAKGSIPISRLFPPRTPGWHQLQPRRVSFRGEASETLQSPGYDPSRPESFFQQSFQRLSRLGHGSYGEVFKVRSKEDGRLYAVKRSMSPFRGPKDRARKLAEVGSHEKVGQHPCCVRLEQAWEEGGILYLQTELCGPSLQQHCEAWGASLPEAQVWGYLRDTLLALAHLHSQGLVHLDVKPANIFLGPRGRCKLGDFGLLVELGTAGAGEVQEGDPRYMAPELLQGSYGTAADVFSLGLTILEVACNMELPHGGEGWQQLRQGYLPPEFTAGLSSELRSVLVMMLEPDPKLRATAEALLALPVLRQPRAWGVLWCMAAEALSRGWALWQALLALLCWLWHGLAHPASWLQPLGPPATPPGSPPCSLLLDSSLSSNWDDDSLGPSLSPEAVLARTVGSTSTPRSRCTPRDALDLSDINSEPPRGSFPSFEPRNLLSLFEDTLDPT

[6] = molecular target: Protein kinase C delta type (Homo sapiens) (UniProt Q05655); assay: Selectivity interaction (KinomeScan (DiscoverX)) EUB0000229b PRKCD; conditions: at 10 µM
[7] = molecular target: Cyclin-dependent kinase-like 3 (Homo sapiens) (UniProt Q8IVW4); assay: Selectivity interaction (KinomeScan (DiscoverX)) EUB0000092b CDKL3; conditions: at 10 µM
[8] = molecular target: Leucine-rich repeat serine/threonine-protein kinase 2 (Homo sapiens, UniProt Q5S007); assay: (§1) Selectivity interaction (KinomeScan (DiscoverX)) EUB0000092b LRRK2; conditions: at 10 µM
Sequence of Leucine-rich repeat serine/threonine-protein kinase 2 (Q5S007 whole entry): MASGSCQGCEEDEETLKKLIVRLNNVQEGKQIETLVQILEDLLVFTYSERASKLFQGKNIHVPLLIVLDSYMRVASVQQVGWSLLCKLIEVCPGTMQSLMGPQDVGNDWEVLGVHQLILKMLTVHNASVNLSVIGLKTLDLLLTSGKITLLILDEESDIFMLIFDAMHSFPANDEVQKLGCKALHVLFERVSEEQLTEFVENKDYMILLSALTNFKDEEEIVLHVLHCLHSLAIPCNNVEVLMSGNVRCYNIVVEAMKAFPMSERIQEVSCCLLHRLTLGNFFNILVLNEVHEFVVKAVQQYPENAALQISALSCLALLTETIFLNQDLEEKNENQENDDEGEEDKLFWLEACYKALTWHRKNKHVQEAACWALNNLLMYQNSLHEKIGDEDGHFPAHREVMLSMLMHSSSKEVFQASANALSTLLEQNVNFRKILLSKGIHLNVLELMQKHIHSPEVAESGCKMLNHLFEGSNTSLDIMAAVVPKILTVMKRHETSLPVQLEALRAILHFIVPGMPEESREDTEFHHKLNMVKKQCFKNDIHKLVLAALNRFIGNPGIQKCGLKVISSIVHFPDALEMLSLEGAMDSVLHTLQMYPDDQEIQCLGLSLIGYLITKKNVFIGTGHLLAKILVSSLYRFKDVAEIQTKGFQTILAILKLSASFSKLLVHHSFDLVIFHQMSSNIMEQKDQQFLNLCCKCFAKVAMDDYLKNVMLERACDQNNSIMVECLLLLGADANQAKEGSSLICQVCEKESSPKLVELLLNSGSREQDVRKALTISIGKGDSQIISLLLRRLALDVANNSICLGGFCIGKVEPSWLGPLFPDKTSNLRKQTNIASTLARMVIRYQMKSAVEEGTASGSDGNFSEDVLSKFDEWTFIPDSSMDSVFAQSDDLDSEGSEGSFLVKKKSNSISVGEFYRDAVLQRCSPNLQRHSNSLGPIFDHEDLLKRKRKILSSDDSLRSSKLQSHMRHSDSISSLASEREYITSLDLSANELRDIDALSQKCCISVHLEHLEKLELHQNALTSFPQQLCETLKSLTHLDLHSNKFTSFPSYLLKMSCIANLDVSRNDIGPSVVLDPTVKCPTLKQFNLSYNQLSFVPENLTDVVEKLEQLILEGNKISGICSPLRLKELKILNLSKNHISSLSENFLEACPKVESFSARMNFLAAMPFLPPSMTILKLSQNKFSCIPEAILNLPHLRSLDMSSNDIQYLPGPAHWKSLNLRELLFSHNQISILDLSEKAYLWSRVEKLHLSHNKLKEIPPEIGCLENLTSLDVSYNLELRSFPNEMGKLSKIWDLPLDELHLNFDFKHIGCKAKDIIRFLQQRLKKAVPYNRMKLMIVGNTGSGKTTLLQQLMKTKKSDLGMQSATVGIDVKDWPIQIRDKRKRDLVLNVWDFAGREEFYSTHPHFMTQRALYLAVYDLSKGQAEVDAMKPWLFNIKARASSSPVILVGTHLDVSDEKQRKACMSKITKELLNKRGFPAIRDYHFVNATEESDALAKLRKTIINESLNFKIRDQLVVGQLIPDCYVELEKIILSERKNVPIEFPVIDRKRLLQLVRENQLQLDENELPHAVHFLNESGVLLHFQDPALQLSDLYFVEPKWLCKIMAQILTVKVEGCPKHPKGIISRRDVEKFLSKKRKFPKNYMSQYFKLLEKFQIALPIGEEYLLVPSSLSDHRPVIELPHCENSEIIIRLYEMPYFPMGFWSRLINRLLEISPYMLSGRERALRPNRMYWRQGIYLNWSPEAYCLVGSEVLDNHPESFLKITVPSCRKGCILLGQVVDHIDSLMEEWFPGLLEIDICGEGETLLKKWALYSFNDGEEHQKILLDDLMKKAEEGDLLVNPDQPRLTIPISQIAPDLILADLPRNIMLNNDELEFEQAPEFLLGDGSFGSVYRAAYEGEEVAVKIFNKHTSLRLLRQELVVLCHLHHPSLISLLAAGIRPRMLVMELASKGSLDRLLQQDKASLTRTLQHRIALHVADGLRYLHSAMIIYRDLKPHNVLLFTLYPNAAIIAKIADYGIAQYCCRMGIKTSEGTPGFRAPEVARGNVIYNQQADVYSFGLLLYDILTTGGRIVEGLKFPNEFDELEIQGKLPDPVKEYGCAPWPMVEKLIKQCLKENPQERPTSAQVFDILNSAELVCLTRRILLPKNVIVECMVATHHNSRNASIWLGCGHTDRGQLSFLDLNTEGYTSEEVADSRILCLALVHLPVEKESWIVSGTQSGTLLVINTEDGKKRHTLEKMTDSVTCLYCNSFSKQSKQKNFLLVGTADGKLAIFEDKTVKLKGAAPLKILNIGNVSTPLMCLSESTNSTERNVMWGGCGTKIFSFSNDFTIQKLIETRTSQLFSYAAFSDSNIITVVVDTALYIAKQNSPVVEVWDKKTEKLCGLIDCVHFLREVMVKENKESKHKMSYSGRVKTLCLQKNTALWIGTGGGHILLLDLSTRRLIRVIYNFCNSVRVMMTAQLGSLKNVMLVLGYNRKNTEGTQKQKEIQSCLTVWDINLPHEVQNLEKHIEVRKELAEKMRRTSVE

[9] = test system: Leucine-rich repeat serine/threonine-protein kinase 2 (Homo sapiens), Q5S007 [G2019S]; assay: as §1; conditions: at 10 µM
Sequence of Leucine-rich repeat serine/threonine-protein kinase 2 (Homo sapiens), Q5S007 [G2019S] (Q5S007 whole entry G2019S): as the sequence (Q5S007 whole entry) above, with G2019S counted along it

[10] = molecular target: cAMP-dependent protein kinase catalytic subunit beta (Homo sapiens) (UniProt P22694); conditions: at 10 µM
[11] = molecular target: Fibroblast growth factor receptor 3 (Homo sapiens, UniProt P22607); assay: (§2) Selectivity interaction (KinomeScan (DiscoverX)) EUB0000618a FGFR3; conditions: at 10 µM
[12] = test system: Fibroblast growth factor receptor 3 (Homo sapiens), P22607 [G697C]; assay: as §2; conditions: at 10 µM
Sequence of Fibroblast growth factor receptor 3 (Homo sapiens), P22607 [G697C] (P22607 whole entry G697C): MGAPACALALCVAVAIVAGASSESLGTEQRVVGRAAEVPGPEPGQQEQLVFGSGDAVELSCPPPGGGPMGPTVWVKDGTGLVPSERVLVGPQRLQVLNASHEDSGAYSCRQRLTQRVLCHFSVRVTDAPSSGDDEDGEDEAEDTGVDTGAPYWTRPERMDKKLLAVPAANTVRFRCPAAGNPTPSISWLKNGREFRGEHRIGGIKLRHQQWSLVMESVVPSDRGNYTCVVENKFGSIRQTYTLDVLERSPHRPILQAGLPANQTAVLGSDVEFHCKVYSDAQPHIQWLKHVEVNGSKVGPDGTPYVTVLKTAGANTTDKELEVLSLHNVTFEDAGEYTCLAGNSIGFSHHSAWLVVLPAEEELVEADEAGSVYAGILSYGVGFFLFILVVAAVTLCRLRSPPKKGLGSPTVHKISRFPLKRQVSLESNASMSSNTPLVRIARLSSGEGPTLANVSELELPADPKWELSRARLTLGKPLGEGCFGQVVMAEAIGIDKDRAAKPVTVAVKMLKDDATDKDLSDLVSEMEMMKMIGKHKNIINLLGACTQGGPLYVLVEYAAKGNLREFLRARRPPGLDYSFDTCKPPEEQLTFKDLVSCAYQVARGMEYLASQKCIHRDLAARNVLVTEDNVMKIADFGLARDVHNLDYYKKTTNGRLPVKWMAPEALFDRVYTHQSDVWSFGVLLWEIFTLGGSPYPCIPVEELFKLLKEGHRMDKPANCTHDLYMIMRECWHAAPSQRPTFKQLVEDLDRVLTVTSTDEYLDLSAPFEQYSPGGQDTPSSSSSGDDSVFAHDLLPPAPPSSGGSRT

[13] = molecular target: T3, Homeodomain-interacting protein kinase 4 (Homo sapiens) (UniProt Q8NE63); assay: Selectivity interaction (KinomeScan (DiscoverX)) EUB0000618a HIPK4; conditions: at 10 µM
T3 sequence (whole entry): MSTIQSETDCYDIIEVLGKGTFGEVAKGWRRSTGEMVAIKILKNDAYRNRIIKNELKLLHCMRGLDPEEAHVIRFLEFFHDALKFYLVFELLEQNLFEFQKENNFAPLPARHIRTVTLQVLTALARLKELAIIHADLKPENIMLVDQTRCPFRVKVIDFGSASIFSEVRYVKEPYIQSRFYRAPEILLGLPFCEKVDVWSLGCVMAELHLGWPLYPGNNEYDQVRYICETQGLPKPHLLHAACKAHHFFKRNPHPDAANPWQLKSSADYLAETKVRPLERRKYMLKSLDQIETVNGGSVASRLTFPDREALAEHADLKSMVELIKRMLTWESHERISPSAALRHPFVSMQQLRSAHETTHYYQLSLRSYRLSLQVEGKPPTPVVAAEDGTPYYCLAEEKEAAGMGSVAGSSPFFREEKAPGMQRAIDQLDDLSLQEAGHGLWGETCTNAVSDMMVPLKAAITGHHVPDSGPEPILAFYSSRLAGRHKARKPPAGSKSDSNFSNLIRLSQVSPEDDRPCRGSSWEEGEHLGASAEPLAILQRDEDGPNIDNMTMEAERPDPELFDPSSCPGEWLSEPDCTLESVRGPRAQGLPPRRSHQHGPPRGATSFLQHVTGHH

[14] = molecular target: Cyclin-dependent kinase-like 1 (Homo sapiens) (UniProt Q00532); assay: Selectivity interaction (KinomeScan (DiscoverX)) EUB0001619a CDKL1; conditions: at 1 µM
Sequence of Cyclin-dependent kinase-like 1 (Homo sapiens) (Q00532 whole entry): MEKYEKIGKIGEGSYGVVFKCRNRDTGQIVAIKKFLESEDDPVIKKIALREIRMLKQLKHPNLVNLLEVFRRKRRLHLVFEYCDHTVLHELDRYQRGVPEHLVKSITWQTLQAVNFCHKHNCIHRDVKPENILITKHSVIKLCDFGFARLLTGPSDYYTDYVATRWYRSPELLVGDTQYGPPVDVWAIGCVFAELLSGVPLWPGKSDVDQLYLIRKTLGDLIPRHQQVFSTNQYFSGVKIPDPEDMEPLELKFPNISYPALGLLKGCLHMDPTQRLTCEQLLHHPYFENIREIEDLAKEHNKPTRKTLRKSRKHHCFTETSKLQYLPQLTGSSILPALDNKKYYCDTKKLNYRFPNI

Sequence of Ribosomal protein S6 kinase alpha-3 (P51812 whole entry, canonical isoform): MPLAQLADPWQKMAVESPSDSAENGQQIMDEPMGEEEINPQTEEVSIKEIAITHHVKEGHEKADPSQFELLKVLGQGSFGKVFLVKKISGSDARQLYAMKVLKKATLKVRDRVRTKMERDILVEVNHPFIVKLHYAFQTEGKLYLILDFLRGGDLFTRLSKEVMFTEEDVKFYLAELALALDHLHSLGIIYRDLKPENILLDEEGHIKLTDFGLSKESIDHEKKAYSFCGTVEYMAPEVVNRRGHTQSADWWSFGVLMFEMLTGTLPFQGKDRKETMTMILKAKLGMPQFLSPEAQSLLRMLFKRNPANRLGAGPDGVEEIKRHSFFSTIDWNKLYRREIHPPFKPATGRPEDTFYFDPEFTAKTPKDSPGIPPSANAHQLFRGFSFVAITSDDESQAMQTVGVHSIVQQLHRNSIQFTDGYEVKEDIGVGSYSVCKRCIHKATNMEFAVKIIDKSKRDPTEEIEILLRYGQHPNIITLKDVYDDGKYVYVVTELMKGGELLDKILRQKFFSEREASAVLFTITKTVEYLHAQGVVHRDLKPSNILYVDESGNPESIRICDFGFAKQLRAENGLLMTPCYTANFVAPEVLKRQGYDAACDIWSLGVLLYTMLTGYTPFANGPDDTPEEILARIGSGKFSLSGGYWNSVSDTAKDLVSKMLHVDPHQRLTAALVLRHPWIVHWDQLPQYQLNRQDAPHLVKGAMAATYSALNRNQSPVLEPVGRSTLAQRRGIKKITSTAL

- % of control ([1]; at 1 µM): 81%
- % of control ([1]; at 5 µM): 58%
Structure (SMILES): C=CC(=O)Nc1cccc(C(=O)Nc2ccc(Nc3cc(-c4[nH]c(SC)nc4C)ccn3)cc2)c1

Structure (SMILES): CN(C)CCOc1ccc(-c2nc(-c3ccncc3)c(-c3ccc4c(c3)CC/C4=N\O)[nH]2)cc1
- % of control [2]: 79%

Structure (SMILES): C=CC(=O)Nc1cc(-n2c(=O)ccc3cnc4ccc(-c5ccc(NS(C)(=O)=O)cc5)cc4c32)ccc1C
- % of control ([3]; at 1 µM): 100%
- % of control ([3]; at 10 µM): 80%

- dTM [4]: -0.68 K
Structure (SMILES): Cc1cc(CN)cc(C)c1-c1ncn(C)c1-c1cncn1C

Structure (SMILES): COc1cc(N(C)c2ccnc3ccc(C(F)(F)F)cc23)cc(OC)c1OC
- % binding [5]: 94%
- % binding [6]: 95%

Structure (SMILES): CCC(=O)N1CCN(c2ccc(-n3c(=O)ccc4cnc5ccc(-c6cnc7ccccc7c6)cc5c43)cc2C(F)(F)F)CC1
- % of control [7]: 92%
- % of control [8]: 81%
- % of control [9]: 99%

Structure (SMILES): Cc1cc([C@@H](C)Nc2ccccc2C(=O)O)c2nc(N3CCOCC3)cc(=O)n2c1 [AZD-6482]
- % of control [10]: 100%

Structure (SMILES): O[C@H]1CC[C@H](Nc2ncc3nc(Nc4c(F)cc(F)cc4F)n([C@H]4CCOC4)c3n2)CC1
- % of control [11]: 88%
- % of control [12]: 82%
- % of control [13]: 98%

Structure (SMILES): N#Cc1cccc(-c2c[nH]c3ncnc(N4CCOCC4)c23)c1
- % of control [14]: 100%
